Assays:
Type in all cases: cell-based, human
[1] = system: HCT 116 cells transduced with the PDE5A DD derived GFP constructs; assay: Response to Vardenafil, GFP expression by FACS in HCT116; settings: for MFI / Stabilization ratio with Vardenafil: 48 hours, HCT116
Procedure: (§1) Mutations were created in PDE5A (535-860) catalytic domain using site directed mutagenesis and the mutants were cloned as AcGFP fusion into pELNS vector carrying mCherry marker and packaged in lentiviral vectors. HCT116 cells were transduced with the constructs and stable integrants were selected by cell sorting using mCherry marker. Cells were treated with vehicle (dimethyl sulfoxide, DMSO) or 10 μM Vardenafil (VDF) for 48 hours. Following the treatment, cells were analyzed for GFP expression using FACS. Basal expression was calculated as the ratio of GFP signal in the absence of ligand for a given cell line to auto fluorescence of parental HCT-116 cells. Stabilization ratio was calculated as the ratio of the GFP signal observed in the presence of stabilizing ligand to the signal from the same cell line in the absence of ligand.
HCT 116 cells transduced with the PDE5A DD derived GFP constructs were also tested with increasing doses of Vardenafil. The HCT116 cells were incubated for 48 hours with Vardenafil starting at a dose of 0.002 μM to 30 μM. The GFP intensity of the Vardenafil treated samples was compared to the parental untransduced HCT116 and DMSO treated cells for each construct. The mean fluorescence intensity was calculated for each sample and used to calculate the stabilization ratios as well as the basal expression for each construct. The GFP expression was measured using flow cytometry and the mean fluorescence intensity (MFI) was calculated for each sample. The stabilization ratios are shown in Table 13 and Table 14 and the basal expression is show in Table 15.

[2] = system: HCT 116 cells transduced with the PDE5A DD derived GFP constructs; assay: Response to Tadalafil, GFP expression by FACS in HCT116; settings: for MFI / Stabilization ratio with Tadalafil: 48 hours, HCT116
Procedure: as §1, with “PDE5AN (#3) was” for “Mutations were created in PDE5A (535-860) catalytic domain using site directed mutagenesis and the mutants were”, “construct” for “constructs”, “varying doses of Tadalafil (TDF)” for “10 μM Vardenafil (VDF)”, “hrs with doses ranging from 0.01 μM to 100 μM.” for “hours.”
HCT 116 cells transduced with the PDE5A DD derived GFP constructs were also tested with increasing doses of Tadalafil. The HCT116 cells were incubated for 48 hours with Tadalafil starting at dose 0.01 μM to 100 μM. The GFP intensity of the Tadalafil treated samples was compared to the parental untransduced HCT116 and DMSO treated cells for each construct. The mean fluorescence intensity was calculated for each sample and used to calculate the stabilization ratios as well as the basal expression for each construct. The stabilization ratios are shown in Table 19 and Table 20 and the basal expression is show in Table 21.

[3] = system: HCT116 cells transduced with the constructs; assay: Response to Sildenafil, GFP expression by flow cytometry in HCT116; settings: for MFI / Stabilization ratio with Sildenafil: 48 hours, HCT116
Procedure: Similar experiments were performed in HCT116 cells using sildenafil. The above-mentioned DDs were cloned as AcGFP fusion into pELNS vector carrying mCherry marker and packaged in lentiviral vectors. HCT116 cells were transduced with the constructs and stable integrants were selected by cell sorting using mCherry marker. Cells were treated with sildenafil at the following μM concentrations: 0.01, 0.02, 0.05, 0.14, 0.41, 1.23, 3.7, 11.11, 33.33, and 100 for a duration of 48 hours. The fluorescence was analyzed by flow cytometry and the mean fluorescence intensity was calculated for all samples. […] The stabilization ratios are shown in Table 24 and Table 25 and the basal expression is show in Table 26.

Substance: PDE5AC (#28): AcGFP fused to C-terminal DD 535-860 of PDE5A (Q589R, K591E, N609H, D764V), SEQ ID NO. 25
- MFI ([1]; DMSO (no Vardenafil)): 13817
- Basal (DMSO/Parental) ([1]; Table 10, GFP signal without ligand / auto fluorescence of parental HCT-116): 10.4
- Basal ([1]; Table 15, MFI with DMSO / parental HCT116, Vardenafil experiment): 7.07
- Stabilization ratio with Vardenafil ([1]; Vardenafil 0.002 μM vs DMSO): 1.1
- MFI ([1]; Vardenafil 0.002 μM): 15437
- MFI ([1]; Vardenafil 0.005 μM): 19446
- Stabilization ratio with Vardenafil ([1]; Vardenafil 0.014 μM vs DMSO): 2.1
- MFI ([1]; Vardenafil 0.014 μM): 29314
- Stabilization ratio with Vardenafil ([1]; Vardenafil 0.041 μM vs DMSO): 3.3
- MFI ([1]; Vardenafil 0.041 μM): 45804
- Stabilization ratio with Vardenafil ([1]; Vardenafil 0.123 μM vs DMSO): 5.4
- MFI ([1]; Vardenafil 0.123 μM): 74153
- Stabilization ratio with Vardenafil ([1]; Vardenafil 0.370 μM vs DMSO): 5.9
- MFI ([1]; Vardenafil 0.370 μM): 81663
- Stabilization ratio with Vardenafil ([1]; Vardenafil 1.111 μM vs DMSO): 6.5
- MFI ([1]; Vardenafil 1.111 μM): 89426
- Stabilization ratio with Vardenafil ([1]; Vardenafil 3.333 μM vs DMSO): 6.7
- MFI ([1]; Vardenafil 3.333 μM): 92290
- Stabilization ratio with Vardenafil ([1]; Vardenafil 10 μM vs DMSO): 6.3
- MFI ([1]; Vardenafil 10 μM): 86985
- Stabilization ratio with Vardenafil ([1]; Vardenafil 30 μM vs DMSO): 6.7
- MFI ([1]; Vardenafil 30 μM): 93145
- MFI ([2]; DMSO (no Tadalafil)): 15004
- Basal expression ([2]; Table 21, MFI with DMSO / parental HCT116, Tadalafil experiment): 11.72
- Stabilization ratio with Tadalafil ([2]; Tadalafil 0.01 μM vs DMSO): 0.9
- MFI ([2]; Tadalafil 0.01 μM): 14073
- Stabilization ratio with Tadalafil ([2]; Tadalafil 0.02 μM vs DMSO): 1.0
- MFI ([2]; Tadalafil 0.02 μM): 14513
- Stabilization ratio with Tadalafil ([2]; Tadalafil 0.05 μM vs DMSO): 1.0
- MFI ([2]; Tadalafil 0.05 μM): 15730
- Stabilization ratio with Tadalafil ([2]; Tadalafil 0.14 μM vs DMSO): 1.2
- MFI ([2]; Tadalafil 0.14 μM): 18316
- Stabilization ratio with Tadalafil ([2]; Tadalafil 0.41 μM vs DMSO): 1.9
- MFI ([2]; Tadalafil 0.41 μM): 28462
- Stabilization ratio with Tadalafil ([2]; Tadalafil 1.23 μM vs DMSO): 3.0
- MFI ([2]; Tadalafil 1.23 μM): 44739
- Stabilization ratio with Tadalafil ([2]; Tadalafil 3.7 μM vs DMSO): 4.6
- MFI ([2]; Tadalafil 3.7 μM): 69430
- Stabilization ratio with Tadalafil ([2]; Tadalafil 11.11 μM vs DMSO): 5.7
- MFI ([2]; Tadalafil 11.11 μM): 85998
- Stabilization ratio with Tadalafil ([2]; Tadalafil 33.33 μM vs DMSO): 6.3
- MFI ([2]; Tadalafil 33.33 μM): 95189
- Stabilization ratio with Tadalafil ([2]; Tadalafil 100 μM vs DMSO): 6.5
- MFI ([2]; Tadalafil 100 μM): 97016
- MFI ([3]; DMSO (no Sildenafil)): 13208
- Stabilization ratio with Sildenafil ([3]; Sildenafil 0.01 μM vs DMSO): 1.1
- MFI ([3]; Sildenafil 0.01 μM): 14613
- Stabilization ratio with Sildenafil ([3]; Sildenafil 0.02 μM vs DMSO): 1.2
- MFI ([3]; Sildenafil 0.02 μM): 16502
- Stabilization ratio with Sildenafil ([3]; Sildenafil 0.05 μM vs DMSO): 1.3
- MFI ([3]; Sildenafil 0.05 μM): 17801
- Stabilization ratio with Sildenafil ([3]; Sildenafil 0.14 μM vs DMSO): 2.0
- MFI ([3]; Sildenafil 0.14 μM): 26694
- Stabilization ratio with Sildenafil ([3]; Sildenafil 0.41 μM vs DMSO): 3.3
- MFI ([3]; Sildenafil 0.41 μM): 43862
- Stabilization ratio with Sildenafil ([3]; Sildenafil 1.23 μM vs DMSO): 5.0
- MFI ([3]; Sildenafil 1.23 μM): 65762
- Stabilization ratio with Sildenafil ([3]; Sildenafil 3.70 μM vs DMSO): 6.3
- MFI ([3]; Sildenafil 3.70 μM): 83657
- Stabilization ratio with Sildenafil ([3]; Sildenafil 11.11 μM vs DMSO): 6.1
- MFI ([3]; Sildenafil 11.11 μM): 80269
- Stabilization ratio with Sildenafil ([3]; Sildenafil 33.33 μM vs DMSO): 6.3
- MFI ([3]; Sildenafil 33.33 μM): 83663
- Stabilization ratio with Sildenafil ([3]; Sildenafil 100.00 μM vs DMSO): 6.1
- Basal expression ([3]; Table 26, MFI with DMSO / parental HCT116, Sildenafil experiment): 10.3

Source: patent US11891634B2, “PDE5A destabilizing domains” (The Board of Trustees of the Leland Stanford Junior …, priority 2017, dated 2024)
